According to patent US5693617A, “Inhibitors of the 26s proteolytic complex and the 20s proteasome contained therein” (ProScript, Inc., priority 1995, dated 1997):
“Also recorded” adds a separate entry of the source. Non-standard residues stand in square brackets, D forms with d. Residues, ends and D or L forms follow the SMILES beside them. Nle = CCCC[C@H](N)C(=O)O

Key:
rat diaphragm muscle = experiment: Protein degradation in incubated rat diaphragm
Procedure: Rat diaphragm muscle was cut into quarters and incubated in medium containing a mixture of amino acids, insulin, inhibitors of lysosomal and calcium dependent proteolysis, and MG 101 at the concentrations shown in FIG. 2. After 1 hour, ^3 H-phenylalanine was added and the incubation continued for 2 hours. Under these conditions, the ATP-dependent ubiquitin pathway is largely responsible for muscle protein degradation. After incubation, the tissue was homogenized and free tyrosine of the homogenate and medium was assayed separately. ^3 -phenylalanine incorporation into protein was also measured. Values are the means +SE of data from 7 animals. Protein synthesis was calculated from the incorporation of ^3 H-phenylalanine, and net protein breakdown was calculated from the release of tyrosine into the incubation medium. The total rate of protein breakdown is calculated from the equation:
Total protein breakdown=Net protein breakdown+Protein synthesis

rat soleus muscle = experiment: Denervation-induced protein degradation in incubated rat soleus muscle; conditions: 100 μM MG 101; FIG. 4
Procedure: One leg of each of seven rats was denervated by section of the sciatic nerve 3 days prior to sacrifice. […] After incubation, the tissue was homogenized, and ^3 -phenylalanine incorporation into protein and free tyrosine of the medium was measured.

20S proteasome = target: T1, 20S proteasome (Oryctolagus cuniculus, UniProt G1T4Q9); experiment: Inhibition of the 20S proteasome peptidase activity (kinetic experiments); format: biochemical, Rabbit
T1 sequence (G1T4Q9 60-263): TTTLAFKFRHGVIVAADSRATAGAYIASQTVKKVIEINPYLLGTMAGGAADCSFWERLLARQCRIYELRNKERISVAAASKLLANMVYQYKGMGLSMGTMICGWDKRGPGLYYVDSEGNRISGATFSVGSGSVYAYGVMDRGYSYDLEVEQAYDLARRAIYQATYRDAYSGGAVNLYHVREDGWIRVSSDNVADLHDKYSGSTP
T1 sequence (G1SU71 1-241 partner): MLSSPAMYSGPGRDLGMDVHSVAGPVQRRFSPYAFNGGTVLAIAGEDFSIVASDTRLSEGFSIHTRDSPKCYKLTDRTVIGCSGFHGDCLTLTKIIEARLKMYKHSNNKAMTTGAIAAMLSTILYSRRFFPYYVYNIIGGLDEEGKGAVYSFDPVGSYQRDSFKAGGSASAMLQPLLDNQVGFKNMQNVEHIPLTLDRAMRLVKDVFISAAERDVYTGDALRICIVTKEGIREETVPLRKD
Source text: Tables I-III summarize results from kinetic experiments that measured the inhibition of the 20S and 26S proteasomes, as well as cathepsin B and calpain, enzymes that may also be involved in muscle protein turnover. In these tables, Ki values are reported, which are dissociation constants for the equilibrium that is established when enzyme and inhibitor interact to form the enzyme:inhibitor complex.
The substances and assay conditions are briefly summarized in the footnotes to Table I. MG 101 and MG 102, also known as Calpain Inhibitor I and II, were purchased from Calbiochem as catalogue products.
(^a) Rabbit muscle. SDSactivated. Substrate: SucLLVYAMC.

[1] = system: mouse B lymphoblastoid cell line (LB27.4); experiment: MHC-I antigen presentation, intact cells (OVA loaded by hypotonic lysis of pinosomes); format: cell-based; conditions: 50 μM MG 101 in media; FIG. 6
Procedure: Antigen-presenting cells (APCs)--mouse B lymphoblastoid cell line (LB27.4)--were washed free of serum and loaded with an ovalbumin peptide (residues 257-263), which corresponds to the sequence these cells naturally generate and present. The APCs were incubated 1 hr at 37° C., electroporated with antigen, incubated 10 min on ice and washed. The antigen loaded cells were incubated 2 hrs at 37° C., fixed with paraformaldehyde, and washed. MG 101 at the concentrations indicated in FIG. 5 was present in all steps prior to fixation. APCs were assayed for antigen presentation as described in Rock et al., J. Immunol. 145:804-811 (1990) and Carbone et al., J. Exp Med. 171:377-387 (1990). […] In the left panel, APCs were treated with (open circles) or without (closed circles) MG 101 and electroporated with ovalbumin. In the right panel, APCs were treated with (open circles) or without (closed circles) MG 101 and electroporated with ovalbumin peptide. Conditions were the same as in Example 7, except that (1) in one group of cells (referred to as MG 101 in media) MG 101 (50 μM) was omitted from the antigen load while in a parallel group (referred to as MG 101 in Ag load) MG 101 (50 μM) was included in the antigen load; and (2) OVA was introduced into the cytoplasm by hypotonic lysis of pinosomes (3) instead of electroporation.

Structure (SMILES): CCCC[C@@H](C=O)NC(=O)[C@H](CC(C)C)NC(=O)[C@H](CC(C)C)NC(C)=O [MG 101, Ac-Leu-Leu-Nle-H] (Ac-Leu-Leu-[Nle]-aldehyde)
- Amino acid pools in incubated muscle (rat diaphragm muscle): nor does it significantly alter amino acid pools
- Protein synthesis in incubated muscle (rat diaphragm muscle; 3H-phenylalanine incorporation): does not inhibit protein synthesis
- Protein degradation in incubated rat diaphragm (rat diaphragm muscle; lysosomal and calcium dependent proteolysis inhibited, FIG. 2): inhibits the breakdown of muscle protein; also recorded: inhibition of protein degradation
- Protein degradation induced by denervation in incubated rat soleus muscle (rat soleus muscle): inhibits the accelerated proteolysis in muscle; also recorded: inhibition of protein degradation
- Mode of inhibition of peptidase activity of muscle 20S proteasome (20S proteasome; FIG. 1): competitive inhibitor
- Ki (20S proteasome; both latent and active forms of 20S proteasome, read-out: Ki, peptidase activities of 20S proteasome): 0.14 to 7 µM
- Antigen presentation from ovalbumin in intact cells [1]: can enter into living cells and inhibit antigen processing; also recorded: inhibits presentation of antigen from ovalbumin
